Assay results from patent publication US11576866B2, “Gastric residence systems for sustained delivery of adamantane-class drugs” (Lyndra Therapeutics, Inc., priority 2016, dated 2023).

What was measured:
[1] = PCL/SGF partition coefficient; format: physicochemical; settings: 5:1 PCL diol (MW 530):ethyl acetate vs FaSSGF
Source text: Partitioning behavior of an adamantane-class drug can be measured between a polycaprolactone phase (PCL phase) and a simulated gastric fluid phase (SGF phase), to give the partition coefficient PPCL-SGF between the two phases. Log PPCL-SGF can also be calculated. A 5:1 mixture of polycaprolactone diol (MW 530):ethyl acetate can be used as the PCL phase, and fasted-state simulated gastric fluid (FaSSGF) can be used as the SGF phase, such that PPCL-SGF=(concentration in polycaprolactone diol)/(concentration in FaSSGF)).
Partitioning of active pharmaceutical ingredient (API), such as an adamantane-class drug such as memantine, between the structural polymer, polycaprolactone (PCL), and fasted state simulated gastric fluid (FaSSGF) is of interest for predicting API release rate from PCL-based formulations. To measure the PCL-SGF partition coefficient of an API, a concentrated stock solution of API was added to a mixture of 1 mL FaSSGF and 1 mL of 5:1 PCL diol (MW 530):ethyl acetate. The sample was vortexed and centrifuged at 10000 rpm for 5 minutes. The SGF phase was analyzed by HPLC to measure drug concentration. The PCL phase was diluted in methanol prior to quantification on HPLC.

[2] = cited from earlier work
[3] = dog, one compartment model; assumed input of the analysis; cited from earlier work
[4] = human; input parameter of simulation; cited from earlier work
[5] = Therapeutic plasma concentrations of memantine (literature); format: in vivo; settings: conversion of 1 micromolar
Protocol: The maximum therapeutically relevant concentration of memantine is approximately 1 micromolar (Rammes et al., Curr. Neuropharmacol. 6(1): 55-78 (2008)), corresponding to a plasma level of about 180 ng/mL. A recommended therapeutic range is about 90 ng/mL to 150 ng/mL, while the laboratory alert value is 300 ng/mL (Hiemke et al., Pharmacopsychiatry 44:195 (2011)).

[6] = Thermal stability of memantine during hot melt processing; format: physicochemical; settings: blended with polymer (20% drug, 2% P407, 20% Eudragit RS, PCL); up to 160° C. for up to 20 minutes
Protocol: The stability of memantine under conditions of hot melt processing was tested. The formulation used for hot melt processing was 20% drug, 0.5% SiO2, 0.5% alpha tocopherol, 2% P407, 20% Eudragit RS, with the balance of material made up of PCL.

PCL/SGF Partition Coefficient [1]: 0.28 | plasma level corresponding to maximum therapeutically relevant concentration [5]: about 180 ng/mL | degradation during hot melt processing [6]: without significant degradation
Compound: CC12CC3CC(C)(C1)CC(N)(C3)C2 [memantine]
laboratory alert value (plasma) ([2]; Hiemke et al. 2011): 300 ng/mL | maximum therapeutically relevant concentration ([2]; Rammes et al. 2008): approximately 1 micromolar | elimination rate constant (ke) [3]: 0.076 h⁻¹ | clearance (CL) [4]: 5.2 L/h | mean volume of distribution [4]: 9 to 11 L/kg | rate of absorption (Ka) [4]: 0.21 h⁻¹
